# In patent publication US8580825B2, “Oxadiazole inhibitors of leukotriene production” (Boehringer Ingelheim International GmbH, priority 2010, dated 2013):
# pIC50: −log10 of the molar value.
# What was measured:
# [1] = test system: synthesis of LTB4 in human whole blood; test: human whole blood LTB4 production inhibition assay; type: cell-based; conditions: calcimycin stimulated, read-out: hWB LTB4 IC50
# Protocol: Compounds are additionally tested in a human whole blood assay to determine their ability to inhibit the synthesis of LTB4 in a cellular system. Compounds are combined with heparinized human whole blood and incubated for 15 minutes at 37° C. Calcimycin (20 μM final, prepared in phosphate-buffered saline, pH 7.4) is then added and the mixture is incubated for another 30 minutes at 37° C. The samples are centrifuged for 5 min at low speed (1500×g) and the plasma layer is removed. Plasma LTB4 concentrations are then measured using an antibody-based homogenous time-resolved fluorescence method (CisBio, Bedford, Mass.).
# [2] = target: T1, recombinant human FLAP protein (Homo sapiens, UniProt P20292); test: FLAP binding assay (Scintillation Proximity Assay, displacement of [125I]L-691,831); conditions: read-out: FLAP SPA IC50
# T1 construct: made in house; host or cells: Sf9 insect cells (100,000xg membrane fraction used)
# T1 sequence (P20292 1-161): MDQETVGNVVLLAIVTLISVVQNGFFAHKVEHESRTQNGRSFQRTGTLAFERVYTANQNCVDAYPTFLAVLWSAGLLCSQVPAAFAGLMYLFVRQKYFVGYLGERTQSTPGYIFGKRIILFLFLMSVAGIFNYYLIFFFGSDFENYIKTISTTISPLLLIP
# Protocol: Compounds are assessed for the ability to bind to FLAP in a binding assay that measures compound-specific displacement of an iodinated (^125I) FLAP inhibitor via a Scintillation Proximity Assay format (adapted from S. Charleson et al., Mol. Pharmacol., 1992, 41, 873-879).
# Cell pellets produced from sf9 insect cells expressing recombinant human FLAP protein are resuspended in buffer A [15 mM Tris-HCl (pH 7.5), 2 mM MgCl2, 0.3 mM EDTA, 1 mM PMSF]. The cells are lysed with a Dounce homogenizer and the material is centrifuged at 10,000×g for 10 minutes. The supernatant is then collected and centrifuged at 100,000×g for 60 minutes. To prepare membrane protein for an assay, an aliquot of the 100,000×g pellet is resuspended in 1 ml of buffer A, Dounce homogenized, and finally subjected to polytron mixing (30 seconds). Membrane protein (25 μl, 5 μg) is mixed with WGA SPA beads (Amersham) and stirred for 1 h. […] (final concentrations: beads, 200 μg/well; protein, 5 μg/well; [^125I] probe, 0.08 nM/well (17 nCi/well). The plates are shaken for 2 h before reading on a Microbeta plate reader. Non-specific binding is determined by the addition of 10 μM cold L-691,831 compound.
pIC50 [1],pIC50 [2],SMILES
7.27,8.08,"CC(O)Cn1cc(-c2nc(C(C)(c3ccc(-c4cnc(N)nc4)nc3)C(C)C)no2)cn1 (stereo not shown) [Example 1, 1-[4-(3-{2-[6-(2-aminopyrimidin-5-yl)pyridin-3-yl]-3-methylbutan-2-yl}-1,2,4-oxadiazol-5-yl)-1H-pyrazol-1-yl]propan-2-ol]"
7.13,8.00,"CC(C)C(C)(c1ccc(-c2cnc(N)nc2)nc1)c1noc(-c2cnn(CC(C)(C)O)c2)n1 (stereo not shown) [Example 2, 1-[4-(3-{2-[6-(2-aminopyrimidin-5-yl)pyridin-3-yl]-3-methylbutan-2-yl}-1,2,4-oxadiazol-5-yl)-1H-pyrazol-1-yl]-2-methylpropan-2-ol]"
7.17,8.33,"CC(C)C(C)(c1ccc(-c2cnc(N)nc2)nc1)c1noc(-c2cnn(C)c2)n1 (stereo not shown) [Example 3, 5-(5-{3-methyl-2-[5-(1-methyl-1H-pyrazol-4-yl)-1,2,4-oxadiazol-3-yl]butan-2-yl}pyridin-2-yl)pyrimidin-2-amine]"
7.70,8.52,"CC(C)[C@](C)(c1ccc(-c2cnc(N)nc2)nc1)c1noc(-c2cnn(C)c2)n1 [Example 4, 5-(5-{(2R)-3-methyl-2-[5-(1-methyl-1H-pyrazol-4-yl)-1,2,4-oxadiazol-3-yl]butan-2-yl}pyridin-2-yl)pyrimidin-2-amine]"
6.12,7.12,"CC(C)[C@@](C)(c1ccc(-c2cnc(N)nc2)nc1)c1noc(-c2cnn(C)c2)n1 [Example 5, 5-(5-{(2S)-3-methyl-2-[5-(1-methyl-1H-pyrazol-4-yl)-1,2,4-oxadiazol-3-yl]butan-2-yl}pyridin-2-yl)pyrimidin-2-amine]"
6.66,8.07,"CC(C)C(C)(c1ccc(-c2cnc(N)nc2)nc1)c1noc(-c2cnn(C(C)(C)CO)c2)n1 (stereo not shown) [Example 6, 2-[4-(3-{2-[6-(2-aminopyrimidin-5-yl)pyridin-3-yl]-3-methylbutan-2-yl}-1,2,4-oxadiazol-5-yl)-1H-pyrazol-1-yl]-2-methylpropan-1-ol]"
6.74,7.84,"CC(C)C(C)(c1ccc(-c2cnc(N)nc2)nc1)c1noc(-c2cnn(CC(=O)N(C)C)c2)n1 (stereo not shown) [Example 7, 2-[4-(3-{2-[6-(2-aminopyrimidin-5-yl)pyridin-3-yl]-3-methylbutan-2-yl}-1,2,4-oxadiazol-5-yl)-1H-pyrazol-1-yl]-N,N-dimethylacetamide]"
7.17,8.20,"COCCn1cc(-c2nc(C(C)(c3ccc(-c4cnc(N)nc4)nc3)C(C)C)no2)cn1 (stereo not shown) [Example 8, 5-[5-(2-{5-[1-(2-methoxyethyl)-1H-pyrazol-4-yl]-1,2,4-oxadiazol-3-yl}-3-methylbutan-2-yl)pyridin-2-yl]pyrimidin-2-amine]"
7.60,8.23,"CC(C)C(C)(c1ccc(-c2cnc(N)nc2)nc1)c1noc(-c2cnn(C3COC3)c2)n1 (stereo not shown) [Example 9, 5-[5-(3-methyl-2-{5-[1-(oxetan-3-yl)-1H-pyrazol-4-yl]-1,2,4-oxadiazol-3-yl}butan-2-yl)pyridin-2-yl]pyrimidin-2-amine]"
7.22,8.31,"COCCNc1cnc(-c2nc(C(C)(c3ccc(-c4cnc(N)nc4)nc3)C(C)C)no2)cn1 (stereo not shown) [Example 10, 5-{5-[2-(5-{5-[(2-methoxyethyl)amino]pyrazin-2-yl}-1,2,4-oxadiazol-3-yl)-3-methylbutan-2-yl]pyridin-2-yl}pyrimidin-2-amine]"
7.40,8.54,"CC(C)C(C)(c1ccc(-c2cnc(N)nc2)nc1)c1noc(-c2cnn3cccnc23)n1 (stereo not shown) [Example 11, 5-(5-{3-methyl-2-[5-(pyrazolo[1,5-a]pyrimidin-3-yl)-1,2,4-oxadiazol-3-yl]butan-2-yl}pyridin-2-yl)pyrimidin-2-amine]"
7.26,8.44,"CCNc1cnc(-c2nc(C(C)(c3ccc(-c4cnc(N)nc4)nc3)C(C)C)no2)cn1 (stereo not shown) [Example 12, 5-[5-(2-{5-[5-(ethylamino)pyrazin-2-yl]-1,2,4-oxadiazol-3-yl}-3-methylbutan-2-yl)pyridin-2-yl]pyrimidin-2-amine]"
7.28,,"CC(C)(O)Cn1cc(-c2nc(C(C)(c3ccc(-c4cnc(N)nc4)nc3)C3CC3)no2)cn1 (stereo not shown) [Example 66, 1-[4-(3-{1-[6-(2-aminopyrimidin-5-yl)pyridin-3-yl]-1-cyclopropylethyl}-1,2,4-oxadiazol-5-yl)-1H-pyrazol-1-yl]-2-methylpropan-2-ol]"
7.39,,"CC(C)(O)Cn1cc(-c2nc([C@@](C)(c3ccc(-c4cnc(N)nc4)nc3)C3CC3)no2)cn1 [Example 81, 1-[4-(3-{(1R)-1-[6-(2-aminopyrimidin-5-yl)pyridin-3-yl]-1-cyclopropylethyl}-1,2,4-oxadiazol-5-yl)-1H-pyrazol-1-yl]-2-methylpropan-2-ol]"
5.92,,"CC(C)(O)Cn1cc(-c2nc([C@](C)(c3ccc(-c4cnc(N)nc4)nc3)C3CC3)no2)cn1 [Example 82, 1-[4-(3-{(1S)-1-[6-(2-aminopyrimidin-5-yl)pyridin-3-yl]-1-cyclopropylethyl}-1,2,4-oxadiazol-5-yl)-1H-pyrazol-1-yl]-2-methylpropan-2-ol]"
6.50,,"CC(C)(O)Cn1cc(-c2nc([C@@](C)(c3ccc(-c4cnc(N)c(C#N)c4)nc3)C3CC3)no2)cn1 [Example 162, 6′-Amino-5-((R)-1-cyclopropyl-1-{5-[1-(2-hydroxy-2-methyl-propyl)-1H-pyrazol-4-yl]-[1,2,4]oxadiazol-3-yl}-ethyl)-[2,3′]bipyridinyl-5′-carbonitrile]"
6.77,,"CC(C)(O)Cn1cc(-c2nc([C@@](C)(c3ccc(-c4cnc5c(c4)OCCN5)nc3)C3CC3)no2)cn1 [Example 167, 1-[4-(3-{(R)-1-Cyclopropyl-1-[6-(3,4-dihydro-2H-pyrido[3,2-b][1,4]oxazin-7-yl)-pyridin-3-yl]-ethyl}-[1,2,4]oxadiazol-5-yl)-pyrazol-1-yl]-2-methyl-propan-2-ol]"
7.20,,"CC(C)(O)Cn1cc(-c2nc([C@@](C)(c3ccc(-c4cnc5[nH]ccc5n4)nc3)C3CC3)no2)cn1 [Example 168, 1-[4-(3-{(R)-1-Cyclopropyl-1-[6-(5H-pyrrolo[2,3-b]pyrazin-2-yl)-pyridin-3-yl]-ethyl}-[1,2,4]oxadiazol-5-yl)-pyrazol-1-yl]-2-methyl-propan-2-ol]"
6.98,,"CNc1ncc(-c2ccc([C@](C)(c3noc(-c4cnn(C5CCOCC5)c4)n3)C3CC3)cn2)cn1 [Example 169, {5-[5-((R)-1-Cyclopropyl-1-{5-[1-(tetrahydro-pyran-4-yl)-1H-pyrazol-4-yl]-[1,2,4]oxadiazol-3-yl}-ethyl)-pyridin-2-yl]-pyrimidin-2-yl}-methyl-amine]"
6.95,,"CNc1cnc(-c2ccc([C@](C)(c3noc(-c4cnn(C)c4)n3)C3CC3)cn2)cn1 [Example 170, [5-(5-{(R)-1-Cyclopropyl-1-[5-(1-methyl-1H-pyrazol-4-yl)-[1,2,4]oxadiazol-3-yl]-ethyl}-pyridin-2-yl)-pyrazin-2-yl]-methyl-amine]"
6.92,,"C[C@@](c1ccc(-c2cnc(N)nc2)nc1)(c1noc(-c2cnn(C3CCOCC3)c2)n1)C1CC1 [Example 171, 5-[5-((R)-1-Cyclopropyl-1-{5-[1-(tetrahydro-pyran-4-yl)-1H-pyrazol-4-yl]-[1,2,4]oxadiazol-3-yl}ethyl)-pyridin-2-yl]-pyrimidin-2-ylamine]"
6.98,,"CNc1ncc(-c2ccc([C@](C)(c3noc(-c4cnn(C)c4)n3)C3CC3)cn2)cn1 [Example 172, [5-(5-{(R)-1-Cyclopropyl-1-[5-(1-methyl-1H-pyrazol-4-yl)-[1,2,4]oxadiazol-3-yl]ethyl}-pyridin-2-yl)-pyrimidin-2-yl]-methyl-amine]"
6.66,,"CNc1cnc(-c2ccc([C@](C)(c3noc(-c4cnn(C5CCOCC5)c4)n3)C3CC3)cn2)cn1 [Example 173, {5-[5-((R)-1-Cyclopropyl-1-{5-[1-(tetrahydro-pyran-4-yl)-1H-pyrazol-4-yl]-[1,2,4]oxadiazol-3-yl}-ethyl)-pyridin-2-yl]-pyrazin-2-yl}-methyl-amine]"
7.28,,C[C@@](c1ccc(-c2cnc(N)cn2)nc1)(c1noc(-c2cnn(C3CCOCC3)c2)n1)C1CC1 [Example 174]
6.57,,"CNc1ncc(-c2ccc([C@](C)(c3noc(-c4cnn(CC(=O)N(C)C)c4)n3)C3CC3)cn2)cn1 [Example 176, 2-[4-(3-{(R)-1-Cyclopropyl-1-[6-(2-methylamino-pyrimidin-5-yl)-pyridin-3-yl]-ethyl}-[1,2,4]oxadiazol-5-yl)-pyrazol-1-yl]-N,N-dimethyl-acetamide]"
